What all share (type): biochemical
One assay addresses T1, human cathepsin S (Homo sapiens, UniProt P25774).
T1 construct: made in house; host or cells: baculovirus expression system
Nature of the assay: Cathepsin S Ki determination. Particulars: baculovirus-expressed human cathepsin S, boc-Val-Leu-Lys-AMC substrate, pH 6.5; read-out: Ki Cat. S. As to the method: The assay uses baculovirus-expressed human cathepsin S and the boc-Val-Leu-Lys-AMC fluorescent substrate available from Bachem in a 384 well plate format, in which 7 test compounds can be tested in parallel with a positive control comprising a known cathepsin S inhibitor comparator.
280 μL/well of 12.5% DMSO are added to rows B-H of two columns of a 96 deep well polypropylene plate. 70 μL/well of substrate is added to row A. 2×250 μL/well of assay buffer (100 mM Na phosphate, 100 mM NaCl, pH 6.5) is added to row A, mixed, and double diluted down the plate to row H.
100 μL/well of assay buffer is added to columns 2-5 and 7-12 of 4 rows of a 96 well V bottom polypropylene plate. 200 μL/well of assay buffer is added to columns 1 and 6.
The first test compound prepared in DMSO is added to column 1 of the top row, typically at a volume to provide between 10 and 30 times the initially determined rough K1. The rough K, is calculated from a preliminary run in which 10 μL/well of 1 mM boc-VLK-AMC (1/10 dilution of 10 mM stock in DMSO diluted into assay buffer) is dispensed to rows B to H and 20 μl/well to row A of a 96 well Microfluor™ plate. 2 μl of each 10 mM test compound is added to a separate well on row A, columns 1-10. Add 90 μl assay buffer containing 1 mM DTT and 2 nM cathepsin S to each well of rows B-H and 180 μl to row A. Mix row A using a multichannel pipette and double dilute to row G. Mix row H and read in the fluorescent spectrophotometer.
The second test compound is added to column 6 of the top row, the third to column 1 of the second row etc. Add 1 μL of comparator to column 6 of the bottom row. Mix column 1 and double dilute to column 5. Mix column 6 and double dilute to column 10.
Using an 8-channel multistepping pipette set to 5×10 μL, distribute 10 μL/well of substrate to the 384 well assay plate. Distribute the first column of the substrate dilution plate to all columns of the assay plate starting at row A. The tip spacing of the multichannel pipette will correctly skip alternate rows. Distribute the second column to all columns starting at row B.
Using a 12-channel multistepping pipette set to 4×10 μL, distribute 10 μL/well of inhibitor to the 384 well assay plate. Distribute the first row of the inhibitor dilution plate to alternate rows of the assay plate starting at A1. The tip spacing of the multichannel pipette will correctly skip alternate columns. Similarly, distribute the second, third and fourth rows to alternate rows and columns starting at A2, B1 and B2 respectively.
Mix 20 mL assay buffer and 20 μL 1M DTT. Add sufficient cathepsin S to give 2 nM final concentration.
Using the a distributor such as a Multidrop 384, add 30 μL/well to all wells of the assay plate and read in fluorescent spectrophotometer such as an Ascent.
Fluorescent readings, (excitation and emission wavelengths 390 nm and 460 nm respectively, set using bandpass filters) reflecting the extent of enzyme cleavage of the fluorescent substrate, […] the inhibitor, are linear rate fitted for each well.
Fitted rates for all wells for each inhibitor are fitted to the competitive inhibition equation using SigmaPlot 2000 to determine V, Km and Ki values.
(§1) Potential inhibitors are screened using the above assay with variable concentrations of test compound. Reactions were initiated by addition of enzyme to buffered solutions of substrate and inhibitor. Ki values were calculated according to equation 1.
(§2) [formula] where v0 is the velocity of the reaction, V is the maximal velocity, S is the concentration of substrate with Michaelis constant of KM, and I is the concentration of inhibitor.

For another assay, the target named is T2, cathepsin K (Homo sapiens, UniProt P43235).
T2 construct: made in house; host or cells: not fixed: E. coli, Pichia or Baculovirus systems are named as options
T2 sequence (P43235 115-329): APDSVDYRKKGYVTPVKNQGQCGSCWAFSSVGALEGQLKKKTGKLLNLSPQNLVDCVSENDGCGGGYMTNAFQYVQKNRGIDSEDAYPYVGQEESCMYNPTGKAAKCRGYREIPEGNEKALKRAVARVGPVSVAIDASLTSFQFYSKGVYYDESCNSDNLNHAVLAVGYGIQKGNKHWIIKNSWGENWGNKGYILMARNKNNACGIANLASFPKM
Nature of the assay: Determination of cathepsin K proteolytic catalytic activity (Ki). Conditions: human recombinant enzyme, H-D-Ala-Leu-Lys-AMC substrate; read-out: Ki Cat. K. As for the experimental part: Convenient assays for cathepsin K are carried out using human recombinant enzyme, such as that described in PDB.
The recombinant cathepsin K can be expressed in a variety of commercially available expression systems including E. coli, Pichia and Baculovirus systems. The purified enzyme is activated by removal of the prosequence by conventional methods.
Standard assay conditions for the determination of kinetic constants used a fluorogenic peptide substrate, typically H-D-Ala-Leu-Lys-AMC, and were determined in either 100 mM Mes/Tris, pH 7.0 containing 1 mM EDTA and 10 mM 2-mercaptoethanol or 100 mM Na phosphate, imM EDTA, 0.1% PEG4000 pH 6.5 or 100 mM Na acetate, pH 5.5 containing 5 mM EDTA and 20 mM cysteine, in each case optionally with […] as stabiliser. The enzyme concentration used was 5 nM. The stock substrate solution was prepared at 10 mM in DMSO. Screens were carried out at a fixed substrate concentration of 60 μM and detailed kinetic studies with doubling dilutions of substrate from 250 μM. The total DMSO concentration in the assay was kept below 3%. All assays were conducted at ambient temperature. Product fluorescence (excitation at 390 nm, emission at 460 nm) was monitored with a Labsystems Fluoroskan Ascent fluorescent plate reader. Product progress curves were generated over 15 minutes following generation of AMC product.
as §1, §2

For a further assay, the target named is human cathepsin L (Homo sapiens, UniProt P07711). Nature of the assay: Cathepsin L Ki. Conditions: H-D-Val-Leu-Lys-AMC substrate, pH 5.5, read-out: Ki Cat. L. As to the method: The procedure above with the following amendments is used for the determination of Ki for cathepsin L.
Chain of human cathepsin L (P07711 114-333): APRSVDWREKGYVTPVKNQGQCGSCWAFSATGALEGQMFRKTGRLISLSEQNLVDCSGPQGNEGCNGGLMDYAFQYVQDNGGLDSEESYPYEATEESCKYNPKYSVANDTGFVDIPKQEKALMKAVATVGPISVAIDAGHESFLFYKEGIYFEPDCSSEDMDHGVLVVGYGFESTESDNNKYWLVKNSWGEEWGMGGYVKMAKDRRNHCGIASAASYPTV
The enzyme is commercially available human cathepsin L (for example Calbiochem). The substrate is H-D-Val-Leu-Lys-AMC available from Bahcem. The assay buffer is 100 mM sodium acetate 1 mM EDTA, pH5.5) The DMSO stock (10 mM in 100% DMSO) is diluted to 10% in assay buffer. Enzyme is prepared at 5 nM concentration in assay buffer plus 1 mM dithiothreitol just before use. 2 μL of 10 mM inhibitor made up in 100% DMSO is dispensed into row A. 10 μL of 50 μM substrate (=1/200 dilution of 10 mM stock in DMSO, diluted in assay buffer).
as §1, §2

21 molecules from patent US8815809B2, “Cysteine protease inhibitors” (Medivir UK Ltd, priority 2009, dated 2014) can be followed below.

T1 sequence (P25774 115-331): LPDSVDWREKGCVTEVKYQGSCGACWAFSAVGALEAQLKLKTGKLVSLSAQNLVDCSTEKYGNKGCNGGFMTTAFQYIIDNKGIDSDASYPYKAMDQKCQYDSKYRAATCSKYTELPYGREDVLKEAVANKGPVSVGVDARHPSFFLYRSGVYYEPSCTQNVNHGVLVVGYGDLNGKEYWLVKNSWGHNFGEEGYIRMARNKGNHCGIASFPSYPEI

`COC1CC(NC(=O)[C@H](CC2(F)CCCC2)NC(=O)OC(C)(C)C)(C(=O)C(=O)Nc2ccn(C)n2)C1` (stereo partly drawn) [Example 49]: the inhibition constant (Ki) (in general, the dissociation constant of the complex between target and ligand, obtained from inhibition or displacement) at human cathepsin S was 0.00065 µM; at cathepsin K, 0.24 µM; on human cathepsin L it was 0.66 µM.
The like results for `CCOC(=O)NC(CC1(C)CCCC1)C(=O)NC1(C(=O)C(=O)Nc2ccn(C)n2)CC(F)C1` (stereo not drawn) [Example 8] were, in that order, 0.001 µM, 1.2 µM and 3.3 µM.
The corresponding values for `Cc1csc(NC(=O)C(=O)C2(NC(=O)[C@H](CC3(C)CCCC3)NC(=O)OC(C)(C)C)CCC2)n1` [Example 20] are 0.03 µM, 95 µM and greater than 200 µM.
Turning to `CC(C)OC(=O)NC(CC1(F)CCCC1)C(=O)NC1(C(=O)C(=O)Nc2ccn(C)n2)CC(F)C1` (stereo not drawn) [Example 31], the Ki on human cathepsin S came to 0.0018 µM; on cathepsin K, 0.41 µM; at human cathepsin L, 1.2 µM.
With `CCOC(=O)NC(CC1(C)CCCC1)C(=O)NC1(C(=O)C(=O)Nc2ccn(C)n2)CC(OC)C1` (stereo not drawn) [Example 70], the Ki at human cathepsin S was 0.0007 µM; at cathepsin K it was 1.4 µM; at human cathepsin L it was 2.1 µM.
The corresponding values for `[2H]C([2H])([2H])n1ccc(NC(=O)C(=O)C2(NC(=O)C(CC3(F)CCCC3)NC(=O)OC(C)(C)C)CC(F)C2)n1` (stereo not drawn) [Example 50] are 0.00065 µM, 0.1 µM and 0.56 µM.
The like results for `Cn1ccc(NC(=O)C(=O)C2(NC(=O)[C@H](CC3(F)CCCC3)NC(=O)OC(C)(C)C)CCC2)n1` [Example 52] were, in that order, 0.0004 µM, 0.098 µM and 0.27 µM.
Regarding `Cn1ccc(NC(=O)C(=O)C2(NC(=O)C(CC3CCCC3)NC(=O)OC(C)(C)C)CC(F)C2)n1` (stereo not drawn) [Example 45], the results for the Ki at human cathepsin S, at cathepsin K and at human cathepsin L were 0.006 µM, 1.1 µM and 0.85 µM, respectively.
As for `CC(C)(C)OC(=O)N[C@@H](CC1(F)CCCC1)C(=O)NC1(C(=O)C(=O)Nc2cc[nH]n2)CCC1` [Example 57, {2-(1-Fluoro-cyclopentyl)-1-[1-(1H-pyrazol-3-ylaminooxalyl)-cyclobutylcarbamoyl]-ethyl}-carbamic acid tert-butyl ester], the figures for the Ki at human cathepsin S, at cathepsin K and on human cathepsin L were 0.00079 µM, 0.29 µM and 0.72 µM, respectively.
The like results for `Cn1ccc(NC(=O)C(=O)C2(NC(=O)[C@H](CC3(F)CCCC3)NC(=O)OC(C)(C)C)CC(F)(F)C2)n1` [Example 10] were, in that order, 0.00055 µM, 0.17 µM and 0.36 µM.
As to `CCOC(=O)NC(CC(C)(C)C)C(=O)NC1(C(=O)C(=O)Nc2ccn(C)n2)CC(F)C1` (stereo not drawn) [Example 4], the results for the Ki at human cathepsin S, at cathepsin K and on human cathepsin L were 0.011 µM, 0.43 µM and 3.3 µM, respectively.
The like results for `COC(=O)N[C@@H](CC1(C)CCCC1)C(=O)N[C@]1(C(=O)C(=O)Nc2ccn(C)n2)C[C@@H](F)C1` [Example 1] were, in that order, 0.0036 µM, 1.1 µM and 4.8 µM.
In the case of `CCOC(=O)NC(CC1(F)CCCC1)C(=O)NC1(C(=O)C(=O)Nc2ccn(C)n2)CC(OC)C1` (stereo not drawn) [Example 68], the inhibition constant Ki on human cathepsin S stood at 0.0011 µM; at cathepsin K, 0.64 µM; on human cathepsin L, 2.4 µM.
The like results for `Cn1cnc(NC(=O)C(=O)C2(NC(=O)[C@H](CC3(C)CCCC3)NC(=O)OC(C)(C)C)CCC2)c1` [Example 11] were, in that order, 0.001 µM, 0.61 µM and 1.1 µM.
The corresponding values for `CC(CF)OC(=O)NC(CC1(F)CCCC1)C(=O)NC1(C(=O)C(=O)Nc2ccn(C)n2)CCC1` (stereo not drawn) [Example 56, {2-(1-Fluoro-cyclopentyl)-1-[1-(1-methyl-1H-pyrazol-3-ylaminooxalyl)-cyclobutylcarbamoyl]-ethyl}-carbamic acid 2-fluoro-1-methyl-ethyl ester] are 0.0018 µM, 0.44 µM and 0.99 µM.
Take `Cn1ccc(NC(=O)C(=O)C2(NC(=O)[C@H](CC3(F)CCCC3)NC(=O)OC3COC3)CCC2)n1` [Example 59, {2-(1-Fluoro-cyclopentyl)-1-[1-(1-methyl-1H-pyrazol-3-ylaminooxalyl)-cyclobutylcarbamoyl]-ethyl}-carbamic acid oxetan-3-yl ester]: the figures for the Ki on human cathepsin S, on cathepsin K and at human cathepsin L were 0.0022 µM, 0.34 µM and 2.1 µM, respectively.
The like results for `Cn1ccc(NC(=O)C(=O)C2(NC(=O)C(CC3(C)CCC3)NC(=O)OC(C)(C)C)CC(F)C2)n1` (stereo not drawn) [Example 19] were, in that order, 0.0047 µM, 0.15 µM and 0.33 µM.
Take `COC1CC(NC(=O)[C@H](CC2(F)CCCC2)NC(=O)OC(C)(C)C)(C(=O)C(=O)Nc2ccn(C)n2)C1` (single isomer, unassigned) [Example 73, {2-(1-Fluoro-cyclopentyl)-1-[3-methoxy-1-(1-methyl-1H-pyrazol-3-ylaminooxalyl)-cyclobutylcarbamoyl]-ethyl}-carbamic acid tert-butyl ester]: the Ki at human cathepsin S was 0.0008 µM; on cathepsin K it was 0.25 µM; on human cathepsin L, 1.1 µM.
On to `CC1(C[C@H](NC(=O)OC(C)(C)C)C(=O)NC2(C(=O)C(=O)NC3CC3)CCC2)CCCC1` [Example 24], for which the Ki on human cathepsin S was determined as 0.0078 µM; on cathepsin K it was 4.4 µM; on human cathepsin L, 10 µM.
For `CC(C)(C)OC(=O)N[C@@H](CC1(F)CCCC1)C(=O)NC1(C(=O)C(=O)NC2CC2)CC(F)C1` (stereo partly drawn) [Example 22], the Ki at human cathepsin S came out at 0.014 µM; at cathepsin K, 3.8 µM; at human cathepsin L it was 25 µM.
The corresponding values for `CCOC(=O)N[C@@H](CC1(F)CCCC1)C(=O)NC1(C(=O)C(=O)NCCCN2CCN(C)CC2)CCC1` [Example 63] are 0.022 µM, 1.4 µM and 4.9 µM.
